Results: PMC12656546, “Enterohepatic Recirculation-Mediated Reabsorption of Aristolochic Acid I: Revealed by Toxicokinetics and Metabolite Identification in Rats” (Toxics, 2025)
Several values for one entry are separate records, joined by “and”; a condition that tells them apart may be missing. Identical values can stand only once.

Experiment: Toxicokinetic study of AAI after single oral administration (plasma, UPLC-QQQ-MS/MS, NCA)
Format: in vivo, F344 rats
Details: for Vd / t1/2 / tmax / AUC0→t / CL/F / Cmax: individual pooled profiles (animal pairs), Table S4
Experimental: For toxicokinetic study, forty-eight […] F344 rats (specific pathogen-free grade) were enrolled in the study, with equal numbers of males and females. All rats were purchased from Charles River Laboratory (Raleigh, NC, USA). All rats were confirmed to be healthy based on a series of physical health examinations. Rats were acclimated for 5 days at a temperature of 20–26 °C, humidity of 40–70% and a 12 h light/dark circle. The rats were randomly divided into four groups (n = 12 per group), with equal numbers of males and females in each group. The allocation was performed separately for each sex (female and male) based on body weight using a stratified randomization method. During the experiment, rats were fasted and had access to water ad libitum. To minimize confounding factors, treatments and measurements were randomized within each session. Cages from different groups were evenly distributed across racks in the same room to reduce bias from light and temperature. This study was approved by the Institutional Animal Care and Use Committee (IACUC) of the National Drug Safety Evaluation Center (Approval No. IACUC-2024-K011, 20 September 2024).
During the experiment, each rat received a single oral administration via gastric gavage. Rats in the control group were administered with 0.5% sodium carboxymethyl cellulose (CMC-Na) suspension. For the treatment groups, rats were administered with gavage solution containing 10, 30 and 100 mg/kg of AAI. The gavage solution was prepared by uniformly dispersing the reference standard of AAI in the 0.5% CMC-Na solution. After oral administration, blood samples were collected from the postorbital vein plex of rats and immediately placed in EDTA tubes. To capture potential reabsorption which might occur long after AAI administration, 15 blood sampling time points were established for each dose group. A sparse sampling approach was employed to avoid excessive blood loss in each rat. For each dosage, 12 rats were subdivided into two groups. For the first group, blood samples were collected from 6 rats at 10, 30, 60, 90, 120, 240, 420, and 600 min after AAI administration; for the second group, blood samples were collected from these 6 rats at 12, 14, 16, 18, 20, 22, and 24 h after AAI administration. Therefore, the experimental design ensured that six biological replicates were obtained for each sampling time point, enabling robust toxicokinetic analysis.
Rat plasma samples were prepared as follows: Blood was centrifuged at 13,200 rpm for 10 min. Then, 25 μL of retrieved plasma was transferred to 2 mL centrifuge tubes, followed by the addition of 75 μL of methanol/acetonitrile solution (v/v, 1∶1) containing indomethacin as internal standard (IS). After vortexing for 2 min and centrifugation for 10 min at 13,200 rpm, the supernatant was used as study samples for quantitative analysis. Quality control samples (QCs) and calibration standards were prepared by spiking blank plasma with different concentrations of AAI standard solution. The QCs and calibration standards were processed using identical procedures as the study samples.
A method of ultra-performance liquid chromatography coupled with triple quadrupole tandem mass spectrometry (UPLC-QQQ-MS/MS) was developed to achieve the quantitation of AAI in rat plasma. The LC-MS/MS analysis was performed using an Acquity UPLC I-Class system coupled with an Xevo TQ XS spectrometer (Waters, Milford, MA, USA). An Acquity UPLC BEH C18 column (2.1 mm × 50 mm, 1.7 μm, Waters, Milford, MA, USA) was employed for chromatographic separation. The mobile phases consisted of water containing 5 mmol/L ammonium formate/0.1% formic acid (A) and acetonitrile (B). The gradient elution was set as follows: 1–4 min, 10–90% B; 4–5 min, 90% B; 5–5.01 min, 90–10% B; 5.01–7 min, 10% B. The flow rate was set at 0.4 mL/min. The column temperature was maintained at 40 °C. A sample volume of 2 μL was injected for analysis. […]

[1] = high-dose (100 mg/kg), 100 mg/kg
[2] = medium-dose (30 mg/kg), 30 mg/kg
[3] = oral dose from 30 mg/kg to 100 mg/kg (3.33-fold)

Q: For `COc1cccc2c1cc([N+](=O)[O-])c1c(C(=O)O)cc3c(c12)OCO3` [AAI, Aristolochic acid I], which Vd [1] is on record?
A: Its Vd is 23.01 L and 3.33 L and 1.48 L and 11.28 L and 7.23 L and 4.20 L.

Q: What about the t1/2 [1] of the same molecule?
A: Its t1/2 is 20.86 h and 3.11 h and 2.58 h and 3.83 h and 2.80 h and 2.72 h.

Q: What about the tmax [1] of the same molecule?
A: The tmax was 1.00 h.

Q: And the “sex-dependent difference in systemic exposure” value (high-dose and medium-dose groups, female vs male rats)?
A: Its value is “female rats exhibited higher systemic exposure compared to males”.

Q: And the AAI plasma concentration (low-dose (10 mg/kg oral), 18 h, individual rats M104,M105,M106,F104,F105,F106, below LLOQ set to zero)?
A: The AAI plasma concentration was 0.00 ng/mL.

Q: What about the AAI plasma concentration (low-dose (10 mg/kg oral), 20 h, individual rats M104,M105,M106,F104,F105,F106, below LLOQ set to zero) of the same molecule?
A: The AAI plasma concentration was 0.00 ng/mL.

Q: What about the AAI plasma concentration (low-dose (10 mg/kg oral), 22 h, individual rats M104,M105,M106,F104,F105,F106, below LLOQ set to zero) of the same molecule?
A: Its AAI plasma concentration is 0.00 ng/mL.

Q: What about the AAI plasma concentration (low-dose (10 mg/kg oral), 24 h, individual rats M104,M105,M106,F104,F105,F106, below LLOQ set to zero) of the same molecule?
A: The AAI plasma concentration was 0.00 ng/mL.

Q: And the AUC0→t (low-dose (10 mg/kg), 10 mg/kg)?
A: The AUC0→t was 1221.57 ng·h/mL and 1055.94 ng·h/mL and 876.13 ng·h/mL and 990.96 ng·h/mL.

Q: And the CL/F (low-dose (10 mg/kg), 10 mg/kg)?
A: The CL/F was 1.53 L/h and 1.06 L/h and 1.82 L/h and 1.98 L/h and 1.38 L/h and 2.17 L/h.

Q: And the Cmax (low-dose (10 mg/kg), 10 mg/kg)?
A: The Cmax was 361.73 ng/mL and 436.18 ng/mL and 640.11 ng/mL and 496.76 ng/mL and 247.55 ng/mL.

Q: What about the Vd (low-dose (10 mg/kg), 10 mg/kg) of the same molecule?
A: The Vd was 2.67 L and 1.53 L and 3.03 L and 4.74 L and 1.21 L and 6.96 L.

Q: And the t1/2 (low-dose (10 mg/kg), 10 mg/kg)?
A: The t1/2 was 1.00 h and 1.15 h and 1.66 h and 0.61 h and 1.21 h and 2.23 h.

Q: What about the tmax (low-dose (10 mg/kg), 10 mg/kg) of the same molecule?
A: Its tmax is 0.17 h.

Q: And the AAI plasma concentration (medium-dose (30 mg/kg oral), 0.167 h, individual rats M201,M202,M203,F201,F202,F203, 30 mg/kg)?
A: Its AAI plasma concentration is 677.97 ng/mL and 891.85 ng/mL and 775.45 ng/mL and 694.87 ng/mL and 747.04 ng/mL and 424.53 ng/mL.

Q: What about the AAI plasma concentration (medium-dose (30 mg/kg oral), 0.5 h, individual rats M201,M202,M203,F201,F202,F203, 30 mg/kg) of the same molecule?
A: Its AAI plasma concentration is 2114.14 ng/mL and 2496.11 ng/mL and 2604.27 ng/mL and 3133.29 ng/mL and 2919.69 ng/mL and 1424.98 ng/mL.

Q: What about the AAI plasma concentration (medium-dose (30 mg/kg oral), 1 h, individual rats M201,M202,M203,F201,F202,F203, 30 mg/kg) of the same molecule?
A: Its AAI plasma concentration is 1312.37 ng/mL and 2360.84 ng/mL and 2630.67 ng/mL and 814.02 ng/mL and 1128.36 ng/mL and 777.08 ng/mL.

Q: What about the AAI plasma concentration (medium-dose (30 mg/kg oral), 1.5 h, individual rats M201,M202,M203,F201,F202,F203, 30 mg/kg) of the same molecule?
A: Its AAI plasma concentration is 508.51 ng/mL and 594.78 ng/mL and 649.03 ng/mL and 685.24 ng/mL and 712.70 ng/mL.

Q: And the AAI plasma concentration (medium-dose (30 mg/kg oral), 2 h, individual rats M201,M202,M203,F201,F202,F203, 30 mg/kg)?
A: Its AAI plasma concentration is 634.01 ng/mL and 354.12 ng/mL and 602.07 ng/mL and 438.37 ng/mL and 724.22 ng/mL and 539.10 ng/mL.

Q: And the AAI plasma concentration (medium-dose (30 mg/kg oral), 4 h, individual rats M201,M202,M203,F201,F202,F203, 30 mg/kg)?
A: Its AAI plasma concentration is 90.61 ng/mL and 161.84 ng/mL and 196.08 ng/mL and 93.85 ng/mL and 264.87 ng/mL and 468.11 ng/mL.

Q: What about the AAI plasma concentration (medium-dose (30 mg/kg oral), 7 h, individual rats M201,M202,M203,F201,F202,F203, 30 mg/kg) of the same molecule?
A: Its AAI plasma concentration is 72.74 ng/mL and 83.75 ng/mL and 104.71 ng/mL and 69.29 ng/mL and 131.52 ng/mL and 64.74 ng/mL.

Q: And the AAI plasma concentration (medium-dose (30 mg/kg oral), 10 h, individual rats M201,M202,M203,F201,F202,F203, 30 mg/kg)?
A: Its AAI plasma concentration is 26.96 ng/mL and 52.18 ng/mL and 50.62 ng/mL and 70.78 ng/mL and 76.59 ng/mL and 58.20 ng/mL.

Q: And the AAI plasma concentration (medium-dose (30 mg/kg oral), 12 h, individual rats M204,M205,M206,F204,F205,F206, 30 mg/kg)?
A: Its AAI plasma concentration is 1.92 ng/mL and 6.45 ng/mL and 1.24 ng/mL and 2.81 ng/mL and 3.93 ng/mL and 3.49 ng/mL.

Q: And the AAI plasma concentration (medium-dose (30 mg/kg oral), 14 h, individual rats M204,M205,M206,F204,F205,F206, 30 mg/kg)?
A: Its AAI plasma concentration is 2.74 ng/mL and 3.87 ng/mL and 2.17 ng/mL and 2.87 ng/mL.

Q: What about the AAI plasma concentration (medium-dose (30 mg/kg oral), 16 h, individual rats M204,M205,M206,F204,F205,F206, 30 mg/kg) of the same molecule?
A: Its AAI plasma concentration is 0.61 ng/mL and 2.32 ng/mL and 0.38 ng/mL and 4.36 ng/mL and 5.23 ng/mL and 10.35 ng/mL.

Q: And the AAI plasma concentration (medium-dose (30 mg/kg oral), 18 h, individual rats M204,M205,M206,F204,F205,F206, 30 mg/kg)?
A: The AAI plasma concentration was 0.83 ng/mL and 5.49 ng/mL and 0.29 ng/mL and 6.28 ng/mL and 4.31 ng/mL and 13.62 ng/mL.

Q: What about the AAI plasma concentration (medium-dose (30 mg/kg oral), 20 h, individual rats M204,M205,M206,F204,F205,F206, 30 mg/kg) of the same molecule?
A: The AAI plasma concentration was 0.91 ng/mL and 3.14 ng/mL and 0.30 ng/mL and 7.63 ng/mL and 13.88 ng/mL and 9.00 ng/mL.

Q: What about the AAI plasma concentration (medium-dose (30 mg/kg oral), 22 h, individual rats M204,M205,M206,F204,F205,F206, 30 mg/kg) of the same molecule?
A: The AAI plasma concentration was 0.40 ng/mL and 4.38 ng/mL and 0.15 ng/mL and 6.11 ng/mL and 48.38 ng/mL and 35.23 ng/mL.

Q: And the AAI plasma concentration (medium-dose (30 mg/kg oral), 24 h, individual rats M204,M205,M206,F204,F205,F206, 30 mg/kg)?
A: The AAI plasma concentration was 0.23 ng/mL and 8.71 ng/mL.

Q: What about the AUC0→t [2] of the same molecule?
A: The AUC0→t was 4703.09 ng·h/mL and 3783.95 ng·h/mL and 3228.59 ng·h/mL and 3983.95 ng·h/mL and 4581.00 ng·h/mL.

Q: What about the CL/F [2] of the same molecule?
A: Its CL/F is 1.18 L/h and 0.80 L/h and 1.03 L/h and 1.79 L/h and 1.32 L/h and 1.20 L/h.

Q: And the Cmax [2]?
A: Its Cmax is 2919.69 ng/mL and 1424.98 ng/mL and 2114.14 ng/mL and 2496.11 ng/mL and 2630.67 ng/mL and 3133.29 ng/mL.

Q: What about the Vd [2] of the same molecule?
A: Its Vd is 5.23 L and 4.46 L and 4.94 L and 5.21 L (2×) and 2.97 L.

Q: What about the t1/2 [2] of the same molecule?
A: Its t1/2 is 3.85 h and 3.33 h and 2.02 h and 2.73 h and 1.71 h and 3.08 h.

Q: And the tmax [2]?
A: Its tmax is 1.00 h.

Q: What about the “fold increase in AUC0→t” value [3] of the same molecule?
A: The value was 4.3 fold.

Q: And the “fold increase in Cmax” value [3]?
A: The value was 3.7 fold.
